13 molecules from ChEMBL document CHEMBL1134001, “Novel inhibitors of the enzyme estrone sulfatase (ES)” (Bioorg Med Chem Lett, 2001) can be followed below.

As usually defined, the IC50 is the concentration needed to halve the response being measured. A higher IC50 goes with weaker potency.

Test [1] deals with T1, Steryl-sulfatase (Homo sapiens) (UniProt P08842).
T1 sequence (whole entry): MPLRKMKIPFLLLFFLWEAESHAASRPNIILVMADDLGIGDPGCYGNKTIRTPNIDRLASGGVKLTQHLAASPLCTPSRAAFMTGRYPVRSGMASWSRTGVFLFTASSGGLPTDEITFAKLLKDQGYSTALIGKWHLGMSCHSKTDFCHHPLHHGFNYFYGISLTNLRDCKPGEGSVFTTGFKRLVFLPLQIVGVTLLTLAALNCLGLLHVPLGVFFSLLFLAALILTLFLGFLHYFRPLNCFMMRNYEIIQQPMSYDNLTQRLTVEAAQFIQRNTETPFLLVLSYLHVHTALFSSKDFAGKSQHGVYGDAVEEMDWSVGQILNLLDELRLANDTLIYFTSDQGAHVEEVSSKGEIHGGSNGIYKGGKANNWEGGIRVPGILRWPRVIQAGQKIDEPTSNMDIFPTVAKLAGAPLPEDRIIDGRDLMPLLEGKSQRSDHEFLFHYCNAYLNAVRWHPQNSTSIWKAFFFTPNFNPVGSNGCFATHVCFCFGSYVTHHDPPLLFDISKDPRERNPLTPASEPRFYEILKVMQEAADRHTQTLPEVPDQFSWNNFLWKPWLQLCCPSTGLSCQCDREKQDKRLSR
Briefly: Relative potency compared to COUMATE against Estrone sulfatase.

Test [2] has as its target T1, Steryl-sulfatase (Homo sapiens). In words: Relative potency compared to EMATE against Estrone sulfatase.
The next test addresses T2, Steryl-sulfatase (Homo sapiens, UniProt P08842).
T2 sequence (P08842 whole entry): T1 sequence (whole entry)
In words: Inhibition of Estrone sulfatase.

Test [3] concerns the target T1, Steryl-sulfatase (Homo sapiens).
Description: (§1) Relative potency against Estrone sulfatase
For test [4] the target is unchanged. The source holds these as a separate data set.
Test [5] shares this target. This is another data set of the same source.
Description: as §1

SMILES strings stand for the structures.

As to `CCCCCCCCCC(=O)c1ccc(OS(N)(=O)=O)cc1`, the results for the Potency in test [1] and in test [2] were 0.923 and 0.0385, respectively. At Steryl-sulfatase, the IC50 was found to be 13 µM.
Turning to `C[C@]12CC[C@@H]3c4ccc(OS(N)(=O)=O)cc4CCC3[C@@H]1CCC2=O` (single isomer, unassigned) [EMATE], the results for the Potency in test [1] and in test [3] were 24 and 1, respectively. At Steryl-sulfatase, inhibition was half-maximal at 0.5 µM (IC50).
In the case of `CCCCC(=O)c1ccc(OS(N)(=O)=O)cc1`, the Potency in test [1] came to 0.574; in test [2] it was 0.0239. Moreover, the IC50 against Steryl-sulfatase was determined as 20.9 µM.
As for `NS(=O)(=O)Oc1ccc(C(=O)Cc2ccccc2)cc1`, the Potency in test [1] worked out at 0.364; in test [2], 0.0152. Further, on Steryl-sulfatase, half-maximal inhibition (IC50) required 33 µM.
Consider `CCCC(=O)c1ccc(OS(N)(=O)=O)cc1`, for which the Potency amounted to 0.301 in test [1] and 0.0126 in test [2]. Also, at Steryl-sulfatase, the IC50 is 39.8 µM.
For `NS(=O)(=O)Oc1ccc(C(=O)/C=C/c2ccccc2)cc1`, the Potency amounted to 0.0456 in test [1] and 0.0019 in test [2]. On Steryl-sulfatase, this molecule registered an IC50 of 263 µM.
Turning to `CCCCCCCC(=O)c1ccc(OS(N)(=O)=O)cc1`, the Potency in test [1] is 2.14; in test [2] it was 0.0893. This molecule came in with an IC50 against Steryl-sulfatase of 5.6 µM.
For the molecule `NS(=O)(=O)Oc1ccc(C=O)cc1`, the Potency in test [1] amounted to 0.0472; in test [2] it was 0.0019. On Steryl-sulfatase, this molecule had an IC50 of 254 µM.
On Steryl-sulfatase, `Cc1cc(=O)oc2cc(OS(N)(=O)=O)ccc12` had an IC50 of 12 µM. In addition, the Potency in test [4] worked out at 0.0417; in test [5], 1.
Regarding `CCCCCCC(=O)c1ccc(OS(N)(=O)=O)cc1`, the Potency in test [1] worked out at 2.4; in test [2] it was 0.1. The midpoint of inhibition against Steryl-sulfatase, the IC50, lay at 5 µM.
In the case of `CCCCCCCCC(=O)c1ccc(OS(N)(=O)=O)cc1`, the Potency in test [1] worked out at 3.53; in test [2] it was 0.147. The molecule further had a 50% inhibitory concentration (IC50) against Steryl-sulfatase of 3.4 µM.
Regarding `NS(=O)(=O)Oc1ccc(C(=O)c2ccccc2)cc1`, the Potency in test [1] came to 0.191; in test [2], 0.0079. This molecule also returned an IC50 at Steryl-sulfatase of 63 µM.
For the molecule `CC(=O)c1ccc(OS(N)(=O)=O)cc1`, the figures for the Potency in test [1] and in test [2] were 0.0397 and 0.0016, respectively. Also, 302 µM corresponded to half-maximal inhibition at Steryl-sulfatase (IC50).
